Measured values published in US9752110B2, “Method and compositions of preserving wine” (YSDR, LLC, priority 2008, dated 2017).

How the values were obtained:
eNOS = conditions: cited from earlier work
lactobacilus = assay: Antibacterial specificity: lactobacilli
[1] = test system: bacteria and fungi in wine; conditions: cited from earlier work
acetobacter xilum = assay: Antibacterial specificity: acetobacter
[2] = cited from earlier work
malolactic conversion = assay: Effect on malolactic conversion in wine
Source text: Another important process in wine-making is the Malolactic fermentation. Malic acid is naturally present in the grape must, but it adds an unpleasant taste to the wine. […] As discussed above, nearly all red wines undergo malolactic fermentation. As discussed above, the conversion is usually carried out by introducing a lactobacteria (most commonly the Oenococus-Oeni lactobacteria) to the wine after an initial fermentation step. […] Therefore, in wine preserved with resveratrol and/or pterostilbene, the malolactic fermentation can take place during the initial alcohol-fermentation process. That is, no separate step of malic and lactic fermentation needs to be carried out when wine is preserved with resveratrol and/or pterostilbene.

## COc1cc(C=CC(=O)O)cc(OC)c1O (stereo in doubt) [sinapinic acid]
eNOS
  eNOS expression or eNOS promoter activity: did not change

## Oc1ccc(/C=C/c2cc(O)cc(O)c2)cc1 [Resveratrol, 3,4′,5-trihydroxy-trans-stilbene]
lactobacilus
  anti-bacterial properties against lactobacilus: no anti-bacterial properties
eNOS
  eNOS expression or eNOS promoter activity: most efficacious stimulator
[1]
  antibacterial and antifungal activity in wine: antibacterial and antifungal activity
Acetobacter xilum
  inhibition of acetobacter xilum: specific inhibitor

## O=C(O)c1ccccc1 [benzoic acid]
eNOS
  eNOS expression or eNOS promoter activity: enhanced eNOS expression moderately

## O=C(O)/C=C/c1ccc(O)c(O)c1 [caffeic acid]
eNOS
  eNOS expression or eNOS promoter activity: enhanced eNOS expression moderately

## COc1cc(/C=C/C(=O)O)ccc1O [ferulic acid]
eNOS
  eNOS expression or eNOS promoter activity: did not change

## O=c1c(O)c(-c2ccc(O)c(O)c2)oc2cc(O)ccc12 [fisetin]
eNOS
  eNOS expression or eNOS promoter activity: did not change

## O=C(O)c1cc(O)c(O)c(O)c1 [gallic acid]
eNOS
  eNOS expression or eNOS promoter activity: did not change

## O=c1c(O)c(-c2cc(O)c(O)c(O)c2)oc2cc(O)cc(O)c12 [myricetin]
eNOS
  eNOS expression or eNOS promoter activity: did not change

## O=C(O)/C=C/c1ccc(O)cc1 [p-coumaric acid]
eNOS
  eNOS expression or eNOS promoter activity: enhanced eNOS expression moderately

## COc1cc(/C=C/c2ccc(O)cc2)cc(OC)c1 [pterostilbene, 4-[(E)-2,(3,5-dimethoxyphenyl)ethenyl]phenol]
[2]
  water solubility: less water soluble than resveratrol

## COc1cc(C(=O)O)ccc1O [vanillic acid]
eNOS
  eNOS expression or eNOS promoter activity: enhanced eNOS expression moderately

## catechin
eNOS
  eNOS expression or eNOS promoter activity: did not change

## sulfur dioxide [SO2]
Malolactic conversion
  effect on malolactic conversion: suppress the malolactic conversion
